Measured values from patent US10624972B2, “Conjugates for treating diseases” (priority 2015, dated 2020).
Like-named read-outs stand apart in the source and are kept apart here. *1 amine or outer side, *2 acyl side, *3 side chain or, on linkers, in order; H or OH if unused. Where a SMILES comes first, the peptide text is derived from it. The star is where a group is joined. X1 = COc1ccc(C2=CN(C(=O)c3cc(OC)c(OC)cc3N)[C@H](C3OCCN3C(=O)OCCS*)C2)cc1; X2 = COc1cc(N)c(C(=O)N2c3ccccc3C[C@H]2C2OCCN2C(=O)OCc2ccc(S*)cc2)cc1OC; Pteroyl = Nc1nc2ncc(CNc3ccc(C(=O)*)cc3)nc2c(=O)[nH]1; γGlu = O=C(O)[C@H](CCC(=O)[*:2])N[*:1]

Legend:
KB cells = assay: cells; type: cell-based, Human
Protocol: METHOD. Inhibition of Cellular DNA Synthesis. The conjugates described herein were evaluated using an in vitro cytotoxicity assay that predicted the ability of the drug to inhibit the growth of the corresponding targeted cells, such as, but not limited to the following
It is to be understood that the choice of cell type can be made on the basis of the susceptibility of those selected cells to the drug that forms the conjugate, and the relative expression of the cell surface receptor or target antigen. The test conjugates were conjugates of a cell surface receptor or target antigen binding compound and PBD prodrugs, poly-PBD prodrugs, and mixed PBDs, as described herein. The test cells were exposed to varying concentrations of the conjugates, and optionally also in the absence or presence of at least a 100-fold excess of the unconjugated cell surface receptor or target antigen binding compound for competition studies to assess activity as being specific to the cell surface receptor or target antigen.
EXAMPLE. Conjugates of PBD prodrugs, poly-PBD prodrugs, and mixed PBDs described herein were active against KB cells. The activity was mediated by the folate receptor as indicated by competition experiments using co-administered folic acid. KB cells were exposed for up to 7 h at 37° C. to the indicated concentrations of folate-drug conjugate in the absence or presence of at least a 100-fold excess of folic acid. The cells were then rinsed once with fresh culture medium and incubated in fresh culture medium for 72 hours at 37° C. Cell viability was assessed using a ^3H-thymidine incorporation assay. For conjugates described herein, dose-dependent cytotoxicity was generally measurable, and in most cases, the IC50 values (concentration of drug conjugate required to reduce ^3H-thymidine incorporation into newly synthesized DNA by 50%) were in the low nanomolar range.

[1] = Toxicity as measured by weight loss (test animal total body weight); type: in vivo, mice; settings: KB tumor study
Protocol: METHOD. Toxicity as Measured by Weight Loss. The percentage weight change of the test animals was determined on selected days post-tumor inoculation (PTI), and during dosing. The results were graphed.

[2] = Homo sapiens, KB cells, 3H-thymidine incorporation, read-out: IC50 KB Cells
[3] = Homo sapiens, KB cells, co-administered with dithiothreitol (DTT), read-out: IC50 KB Cells

C=C1C[C@@H](C2OCCN2C(=O)OCc2ccc(NC(=O)[C@H](C)NC(=O)[C@@H](NC(=O)CCCCCN3C(=O)CC(SC[C@@H](NC(=O)[C@H](CCC(=O)NC[C@H](O)[C@@H](O)[C@H](O)[C@H](O)CO)NC(=O)[C@@H](CCC(=O)O)NC(=O)[C@H](CCC(=O)NC[C@H](O)[C@@H](O)[C@H](O)[C@H](O)CO)NC(=O)[C@@H](CCC(=O)O)NC(=O)[C@H](CCC(=O)NC[C@H](O)[C@@H](O)[C@H](O)[C@H](O)CO)NC(=O)CC[C@H](NC(=O)c4ccc(NCc5cnc6nc(N)[nH]c(=O)c6n5)cc4)C(=O)O)C(=O)O)C3=O)C(C)C)cc2)N(C(=O)c2cc(OC)c(OCCCCCOc3cc(N)c(C(=O)N4CC(=C)C[C@H]4C4OCCN4C(=O)OCC4c5ccccc5-c5ccccc54)cc3OC)cc2N)C1 (stereo partly shown) [EC1911]
IC50 (KB cells; 3 h): 0.7 nM

C=C1C[C@@H](C2OCCN2C(=O)OCCSSC[C@@H](NC(=O)[C@H](CCC(=O)NC[C@H](O)[C@@H](O)[C@H](O)[C@H](O)CO)NC(=O)[C@@H](CCC(=O)O)NC(=O)[C@H](CCC(=O)NC[C@H](O)[C@@H](O)[C@H](O)[C@H](O)CO)NC(=O)[C@@H](CCC(=O)O)NC(=O)[C@H](CCC(=O)NC[C@H](O)[C@@H](O)[C@H](O)[C@H](O)CO)NC(=O)CC[C@H](NC(=O)c2ccc(NCc3cnc4nc(N)[nH]c(=O)c4n3)cc2)C(=O)O)C(=O)O)N(C(=O)c2cc(OC)c(OCCCCCOc3cc(N)c(C(=O)N4CC(=C)C[C@H]4C4OCCN4C(=O)OCCSSc4ccccn4)cc3OC)cc2N)C1 (stereo partly shown) [EC1949]
IC50 (KB cells; 3 h): 1.49 nM

C=C1C[C@@H](C2OCCN2C(=O)OCc2ccc(NC(=O)[C@H](C)NC(=O)[C@@H](NC(=O)CCOCCOCCOCCOCCNC(=O)CCN3C(=O)CC(SC[C@@H](NC(=O)[C@H](CCC(=O)NC[C@H](O)[C@@H](O)[C@H](O)[C@H](O)CO)NC(=O)[C@@H](CCC(=O)O)NC(=O)[C@H](CCC(=O)NC[C@H](O)[C@@H](O)[C@H](O)[C@H](O)CO)NC(=O)[C@@H](CCC(=O)O)NC(=O)[C@H](CCC(=O)NC[C@H](O)[C@@H](O)[C@H](O)[C@H](O)CO)NC(=O)CC[C@H](NC(=O)c4ccc(NCc5cnc6nc(N)[nH]c(=O)c6n5)cc4)C(=O)O)C(=O)O)C3=O)C(C)C)cc2)N(C(=O)c2cc(OC)c(OCCCCCOc3ccc(-c4nc5ccc(-c6nc7cc(N8CCN(C)CC8)ccc7[nH]6)cc5[nH]4)cc3)cc2N)C1 (stereo partly shown) [EC2080]
IC50 (KB cells; 3 h): 0.2 nM

C=C1C[C@@H](C2OCCN2C(=O)OCC2c3ccccc3-c3ccccc32)N(C(=O)c2cc(OC)c(OCCCCCOc3cc(NC(=O)OCc4ccc(NC(=O)[C@H](C)NC(=O)[C@@H](NC(=O)CCOCCOCCOCCOCCNC(=O)CCN5C(=O)CC(SC[C@@H](NC(=O)[C@H](CCC(=O)NC[C@H](O)[C@@H](O)[C@H](O)[C@H](O)CO)NC(=O)[C@@H](CCC(=O)O)NC(=O)[C@H](CCC(=O)NC[C@H](O)[C@@H](O)[C@H](O)[C@H](O)CO)NC(=O)[C@@H](CCC(=O)O)NC(=O)[C@H](CCC(=O)NC[C@H](O)[C@@H](O)[C@H](O)[C@H](O)CO)NC(=O)CC[C@H](NC(=O)c6ccc(NCc7cnc8nc(N)[nH]c(=O)c8n7)cc6)C(=O)O)C(=O)O)C5=O)C(C)C)cc4)c(C(=O)N4CC(=C)C[C@H]4C4OCCN4C(=O)OCC4c5ccccc5-c5ccccc54)cc3OC)cc2N)C1 (stereo partly shown) [EC2103]
IC50 (KB cells; 3 h): 3.5 nM

C=C1C[C@@H](C2OCCN2C(=O)OCc2ccc(NC(=O)[C@H](C)NC(=O)[C@@H](NC(=O)CCOCCOCCOCCOCCNC(=O)CCN3C(=O)CC(SC[C@@H](NC(=O)[C@H](CCC(=O)NC[C@H](O)[C@@H](O)[C@H](O)[C@H](O)CO)NC(=O)[C@@H](CCC(=O)O)NC(=O)[C@H](CCC(=O)NC[C@H](O)[C@@H](O)[C@H](O)[C@H](O)CO)NC(=O)[C@@H](CCC(=O)O)NC(=O)[C@H](CCC(=O)NC[C@H](O)[C@@H](O)[C@H](O)[C@H](O)CO)NC(=O)CC[C@H](NC(=O)c4ccc(NCc5cnc6nc(N)[nH]c(=O)c6n5)cc4)C(=O)O)C(=O)O)C3=O)C(C)C)cc2)N(C(=O)c2cc(OC)c(OCCCCCOc3cc(N)c(C(=O)N4CC(=C)C[C@H]4C4OCCN4C(=O)OCc4ccc([N+](=O)[O-])cc4)cc3OC)cc2N)C1 (stereo partly shown) [EC2127]
IC50 (KB cells; 3 h): 1.34 nM

COc1ccc(C2=CN(C(=O)c3cc(OC)c(OC)cc3N)[C@H](C3OCCN3C(=O)OCCSSC[C@H](NC(=O)[C@H](CC(=O)O)NC(=O)[C@H](CC(=O)O)NC(=O)[C@H](CCCNC(=N)N)NC(=O)[C@H](CC(=O)O)NC(=O)CC[C@H](NC(=O)c3ccc(NCc4cnc5nc(N)[nH]c(=O)c5n4)cc3)C(=O)O)C(=O)O)C2)cc1 (stereo partly shown) [EC1629] ({Pteroyl-γGlu}-DRDDC(X1)-OH)
toxicity as evidenced by test animal total body weight ([1]; 2 μmol/kg TIW for two weeks): Toxicity was not observed

COc1ccc(C2=CN(C(=O)c3cc(OC)c(OC)cc3N)[C@H](C3OCCN3C(=O)OCCSSc3ccccn3)C2)cc1 (stereo partly shown) [EC1628]
IC50 (KB cells; [2]): 383 nM | IC50 (KB cells; [3]): 11 nM

C=C1C[C@H]2C(=O)Nc3cc(OCCCCCOc4cc(N)c(C(=O)N5CC(=C)C[C@H]5C5OCCN5C(=O)OCc5ccc(NC(=O)[C@H](C)NC(=O)[C@@H](NC(=O)CCOCCOCCOCCOCCNC(=O)CCN6C(=O)CC(SC[C@@H](NC(=O)[C@H](CCC(=O)NC[C@H](O)[C@@H](O)[C@H](O)[C@H](O)CO)NC(=O)[C@@H](CCC(=O)O)NC(=O)[C@H](CCC(=O)NC[C@H](O)[C@@H](O)[C@H](O)[C@H](O)CO)NC(=O)[C@@H](CCC(=O)O)NC(=O)[C@H](CCC(=O)NC[C@H](O)[C@@H](O)[C@H](O)[C@H](O)CO)NC(=O)CC[C@H](NC(=O)c7ccc(NCc8cnc9nc(N)[nH]c(=O)c9n8)cc7)C(=O)O)C(=O)O)C6=O)C(C)C)cc5)cc4OC)c(OC)cc3C(=O)N2C1 (stereo partly shown) [EC2074]
IC50 (KB cells; 3 h): 3.6 nM

C=C1C[C@H]2C(=O)Nc3cc(OCCCCCOc4cc(N)c(C(=O)N5CC(=C)C[C@H]5C5OCCN5C(=O)OCCCSC[C@H](NC(=O)[C@H](CC(=O)O)NC(=O)[C@H](CC(=O)O)NC(=O)[C@H](CCCNC(=N)N)NC(=O)[C@H](CC(=O)O)NC(=O)CC[C@H](NC(=O)c5ccc(NCc6cnc7nc(N)[nH]c(=O)c7n6)cc5)C(=O)O)C(=O)O)cc4OC)c(OC)cc3C(=O)N2C1 (stereo partly shown) [EC1772]
IC50 (KB cells; 3 h): 0.33 nM

C=C1C[C@@H](C2OCCN2C(=O)OCc2ccc(SSC[C@H](NC(=O)[C@H](CC(=O)O)NC(=O)[C@H](CC(=O)O)NC(=O)[C@H](CCCNC(=N)N)NC(=O)[C@H](CC(=O)O)NC(=O)CC[C@H](NC(=O)c3ccc(NCc4cnc5nc(N)[nH]c(=O)c5n4)cc3)C(=O)O)C(=O)O)cc2)N(C(=O)c2cc(OC)c(OCCCCCOc3cc(N)c(C(=O)N4CC(=C)C[C@H]4C4OCCN4C(=O)OCc4ccc(SSC[C@H](NC(=O)[C@H](CC(=O)O)NC(=O)[C@H](CC(=O)O)NC(=O)[C@H](CCCNC(=N)N)NC(=O)[C@H](CC(=O)O)NC(=O)CC[C@H](NC(=O)c5ccc(NCc6cnc7nc(N)[nH]c(=O)c7n6)cc5)C(=O)O)C(=O)O)cc4)cc3OC)cc2N)C1 (stereo partly shown) [EC1704]
IC50 (KB cells; 3 h): 0.46 nM

C=C1C[C@H]2C=Nc3cc(OCCCCCOc4cc(N)c(C(=O)N5CC(=C)C[C@H]5C5OCCN5C(=O)OCCSSC[C@H](NC(=O)[C@H](CC(=O)O)NC(=O)[C@H](CC(=O)O)NC(=O)[C@H](CCCNC(=N)N)NC(=O)[C@H](CC(=O)O)NC(=O)CC[C@H](NC(=O)c5ccc(NCc6cnc7nc(N)[nH]c(=O)c7n6)cc5)C(=O)O)C(=O)O)cc4OC)c(OC)cc3C(=O)N2C1 (stereo partly shown) [EC1788]
toxicity as evidenced by test animal total body weight ([1]; 0.2 μmol/kg TIW for two weeks): Minor toxicity was observed | toxicity as evidenced by test animal total body weight ([1]; 0.4 μmol/kg BIW for 2 weeks): Minor toxicity was observed | IC50 (KB cells; KB cells, 3H-thymidine incorporation, read-out: IC50 KB Cells): 0.18 nM

C=C1C[C@@H](C2OCCN2C(=O)OCCSSC[C@@H](NC(=O)[C@H](CCC(=O)NC[C@H](O)[C@@H](O)[C@H](O)[C@H](O)CO)NC(=O)[C@@H](CCC(=O)O)NC(=O)[C@H](CCC(=O)NC[C@H](O)[C@@H](O)[C@H](O)[C@H](O)CO)NC(=O)[C@@H](CCC(=O)O)NC(=O)[C@H](CCC(=O)NC[C@H](O)[C@@H](O)[C@H](O)[C@H](O)CO)NC(=O)CC[C@H](NC(=O)c2ccc(NCc3cnc4nc(N)[nH]c(=O)c4n3)cc2)C(=O)O)C(=O)O)N(C(=O)c2cc(OC)c(OCCCCCOc3cc(N)c(C(=O)N4CC(=C)C[C@H]4C4OCCN4C(=O)OCC4c5ccccc5-c5ccccc54)cc3OC)cc2N)C1 (stereo partly shown) [EC1884]
toxicity as evidenced by test animal total body weight ([1]; 2 μmol/kg TIW for two weeks): Toxicity was not observed | IC50 (KB cells; 3 h): 0.36 nM

C=C1C[C@@H](C2OCCN2C(=O)OCCSSc2ccccn2)N(C(=O)c2cc(OC)c(OCCCCCOc3cc(N)c(C(=O)N4CC(=C)C[C@H]4C4OCCN4C(=O)OCCSSc4ccccn4)cc3OC)cc2N)C1 (stereo partly shown) [EC1695]
IC50 (KB cells; [2]): ≥ 100 nM | IC50 (KB cells; [3]): 1 nM

COc1cc(N)c(C(=O)N2c3ccccc3C[C@H]2C2OCCN2C(=O)OCc2ccc(SSC[C@H](NC(=O)[C@H](CC(=O)O)NC(=O)[C@H](CC(=O)O)NC(=O)[C@H](CCCNC(=N)N)NC(=O)[C@H](CC(=O)O)NC(=O)CC[C@H](NC(=O)c3ccc(NCc4cnc5nc(N)[nH]c(=O)c5n4)cc3)C(=O)O)C(=O)O)cc2)cc1OC (stereo partly shown) [EC1673] ({Pteroyl-γGlu}-DRDDC(X2)-OH)
IC50 (KB cells): ≥ 1000 nM
